Columns and labels:
[1] = target: PI4KA (human) (UniProt P42356)
[2] = target: PIK3C3 (human) (UniProt Q8NEB9)
[3] = target: PIK3C2A (human) (UniProt O00443)
[4] = target: PI4KB (human) (UniProt Q9UBF8)
[5] = target: PIK3C2B (human) (UniProt O00750)
[6] = target: CaMK1 (human) (UniProt Q14012)
[7] = system: PRKAA1 or PRKAA2 (rat); details: accession and sequence are those of the human protein
[8] = target: NEK6 (human) (UniProt Q9HC98)
[9] = target: TBK1 (human) (UniProt Q9UHD2)
[10] = target: IKBKB (human) (UniProt O14920)
IKBKB (human), sequence (O14920 whole entry, looked up): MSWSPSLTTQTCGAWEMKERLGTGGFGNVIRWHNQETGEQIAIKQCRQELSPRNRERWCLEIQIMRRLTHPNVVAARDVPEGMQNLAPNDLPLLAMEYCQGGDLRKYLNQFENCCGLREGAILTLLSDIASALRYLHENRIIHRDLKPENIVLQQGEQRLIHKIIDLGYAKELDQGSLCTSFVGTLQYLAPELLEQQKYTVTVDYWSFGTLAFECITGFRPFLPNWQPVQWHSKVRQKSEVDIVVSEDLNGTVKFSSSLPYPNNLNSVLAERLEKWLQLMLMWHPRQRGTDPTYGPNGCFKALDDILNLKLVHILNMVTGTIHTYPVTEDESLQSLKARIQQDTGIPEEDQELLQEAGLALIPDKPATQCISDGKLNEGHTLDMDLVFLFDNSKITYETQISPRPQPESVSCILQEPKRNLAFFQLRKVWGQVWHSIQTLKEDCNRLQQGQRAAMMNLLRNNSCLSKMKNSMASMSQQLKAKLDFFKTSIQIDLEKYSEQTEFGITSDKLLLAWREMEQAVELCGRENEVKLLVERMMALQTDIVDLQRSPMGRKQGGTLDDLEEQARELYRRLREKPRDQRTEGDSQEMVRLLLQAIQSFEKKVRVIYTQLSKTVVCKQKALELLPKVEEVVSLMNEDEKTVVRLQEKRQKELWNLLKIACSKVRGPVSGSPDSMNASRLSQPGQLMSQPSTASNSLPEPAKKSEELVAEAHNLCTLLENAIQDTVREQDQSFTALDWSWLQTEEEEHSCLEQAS

[11] = target: NEK2 (human) (UniProt P51955)
NEK2 (human), sequence (P51955 whole entry, looked up): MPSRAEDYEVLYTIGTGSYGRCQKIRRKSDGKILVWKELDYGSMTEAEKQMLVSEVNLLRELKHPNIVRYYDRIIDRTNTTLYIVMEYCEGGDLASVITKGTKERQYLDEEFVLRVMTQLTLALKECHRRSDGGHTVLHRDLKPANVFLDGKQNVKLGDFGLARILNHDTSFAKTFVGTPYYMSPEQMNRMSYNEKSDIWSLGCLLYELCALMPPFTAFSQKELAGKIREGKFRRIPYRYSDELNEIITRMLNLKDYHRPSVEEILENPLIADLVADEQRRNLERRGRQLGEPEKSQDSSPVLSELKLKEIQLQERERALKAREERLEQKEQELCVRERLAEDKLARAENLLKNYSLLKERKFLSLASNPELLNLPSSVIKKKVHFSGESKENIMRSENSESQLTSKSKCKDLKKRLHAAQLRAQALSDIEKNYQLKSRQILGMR

[12] = target: PRKACA (human) (UniProt P17612)
[13] = target: DYRK2 (human) (UniProt Q92630)
DYRK2 (human), sequence (Q92630 whole entry, looked up): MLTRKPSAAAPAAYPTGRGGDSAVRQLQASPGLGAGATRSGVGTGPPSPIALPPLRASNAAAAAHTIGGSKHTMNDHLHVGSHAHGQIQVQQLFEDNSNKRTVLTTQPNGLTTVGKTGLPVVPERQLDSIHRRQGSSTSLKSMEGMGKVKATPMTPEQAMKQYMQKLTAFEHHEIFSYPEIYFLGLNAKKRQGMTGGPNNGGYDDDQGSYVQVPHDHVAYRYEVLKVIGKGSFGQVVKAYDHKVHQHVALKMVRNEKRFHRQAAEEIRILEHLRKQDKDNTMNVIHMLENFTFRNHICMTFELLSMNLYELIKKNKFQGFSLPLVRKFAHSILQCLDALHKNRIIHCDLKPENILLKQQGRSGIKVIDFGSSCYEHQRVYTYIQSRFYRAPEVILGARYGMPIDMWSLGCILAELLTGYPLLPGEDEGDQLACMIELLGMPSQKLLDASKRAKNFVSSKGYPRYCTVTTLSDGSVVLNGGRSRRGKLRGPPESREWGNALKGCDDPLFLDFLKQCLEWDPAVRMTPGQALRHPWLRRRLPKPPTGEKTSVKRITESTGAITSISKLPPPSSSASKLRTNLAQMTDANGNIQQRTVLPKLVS

[14] = system: SGK1 (human), O00141 [S422D]
[15] = target: CHEK1 (human) (UniProt O14757)
CHEK1 (human), sequence (O14757 whole entry, looked up): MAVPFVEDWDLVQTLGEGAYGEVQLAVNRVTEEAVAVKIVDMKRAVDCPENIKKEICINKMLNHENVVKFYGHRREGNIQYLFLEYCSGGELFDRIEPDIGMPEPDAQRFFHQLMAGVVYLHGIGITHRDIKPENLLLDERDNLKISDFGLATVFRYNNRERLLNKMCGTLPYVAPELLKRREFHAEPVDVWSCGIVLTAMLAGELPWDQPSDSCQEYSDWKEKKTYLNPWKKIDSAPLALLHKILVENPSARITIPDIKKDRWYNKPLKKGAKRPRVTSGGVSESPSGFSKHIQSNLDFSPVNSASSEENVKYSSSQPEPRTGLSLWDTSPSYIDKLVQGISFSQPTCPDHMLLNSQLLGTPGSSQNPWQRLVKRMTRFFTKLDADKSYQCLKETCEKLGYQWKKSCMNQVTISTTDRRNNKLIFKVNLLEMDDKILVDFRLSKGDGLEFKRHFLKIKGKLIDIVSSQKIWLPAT

[16] = target: MAPK13 (human) (UniProt O15264)
MAPK13 (human), sequence (O15264 whole entry, looked up): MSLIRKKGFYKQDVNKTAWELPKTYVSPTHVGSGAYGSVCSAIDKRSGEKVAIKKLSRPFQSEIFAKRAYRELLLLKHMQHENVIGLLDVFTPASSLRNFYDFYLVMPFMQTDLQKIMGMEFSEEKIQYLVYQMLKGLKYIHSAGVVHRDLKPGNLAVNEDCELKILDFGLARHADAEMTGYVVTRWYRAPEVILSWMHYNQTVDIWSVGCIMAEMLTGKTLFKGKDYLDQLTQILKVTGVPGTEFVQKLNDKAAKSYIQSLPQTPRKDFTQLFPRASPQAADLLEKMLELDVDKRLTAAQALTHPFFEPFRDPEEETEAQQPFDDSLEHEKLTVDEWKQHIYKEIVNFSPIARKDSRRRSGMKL

[17] = target: PAK7 (human) (UniProt Q9P286)
[18] = target: RPS6KA3 KD1 KD2 (human) (UniProt P51812)
[19] = target: MELK (human) (UniProt Q14680)
[20] = target: IGF1R (human) (UniProt P08069)
[21] = target: BTK (human) (UniProt Q06187)
BTK (human), sequence (Q06187 whole entry, looked up): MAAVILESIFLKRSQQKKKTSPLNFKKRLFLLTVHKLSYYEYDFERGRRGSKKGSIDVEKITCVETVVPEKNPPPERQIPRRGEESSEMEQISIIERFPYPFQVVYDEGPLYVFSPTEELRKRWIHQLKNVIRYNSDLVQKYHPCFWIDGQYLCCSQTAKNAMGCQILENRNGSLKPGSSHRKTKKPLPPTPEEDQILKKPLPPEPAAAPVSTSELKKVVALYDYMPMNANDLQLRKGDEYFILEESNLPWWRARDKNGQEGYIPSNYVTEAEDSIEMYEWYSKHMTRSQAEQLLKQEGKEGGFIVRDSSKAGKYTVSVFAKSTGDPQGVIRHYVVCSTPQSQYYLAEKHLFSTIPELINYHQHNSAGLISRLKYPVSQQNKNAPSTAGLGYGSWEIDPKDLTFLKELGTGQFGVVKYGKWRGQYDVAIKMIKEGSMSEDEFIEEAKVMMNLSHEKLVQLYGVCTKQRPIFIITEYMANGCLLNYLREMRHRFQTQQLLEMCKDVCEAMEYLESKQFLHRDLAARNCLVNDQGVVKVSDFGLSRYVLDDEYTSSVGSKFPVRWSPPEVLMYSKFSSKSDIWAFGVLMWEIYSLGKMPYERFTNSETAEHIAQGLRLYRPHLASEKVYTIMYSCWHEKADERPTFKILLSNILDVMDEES

[22] = target: GSK3B (human) (UniProt P49841)
[23] = target: CDK2 CCNA2 (human) (UniProt P20248+P24941)
[24] = target: CHEK2 (human) (UniProt O96017)
[25] = target: MKNK2 (human) (UniProt Q9HBH9)
[26] = target: MAPK3 (human) (UniProt P27361)
MAPK3 (human), sequence (P27361 whole entry, looked up): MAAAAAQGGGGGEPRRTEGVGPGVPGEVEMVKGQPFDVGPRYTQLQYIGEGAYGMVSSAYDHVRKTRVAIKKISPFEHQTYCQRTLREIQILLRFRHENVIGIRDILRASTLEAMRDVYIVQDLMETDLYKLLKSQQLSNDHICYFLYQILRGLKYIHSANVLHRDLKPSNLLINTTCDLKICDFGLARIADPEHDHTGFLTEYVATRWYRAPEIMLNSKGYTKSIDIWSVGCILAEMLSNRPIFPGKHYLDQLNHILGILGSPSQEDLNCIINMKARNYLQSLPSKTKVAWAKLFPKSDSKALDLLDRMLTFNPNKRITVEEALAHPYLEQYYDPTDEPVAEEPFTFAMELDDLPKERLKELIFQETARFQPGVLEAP

[27] = target: INSRR (human) (UniProt P14616)
[28] = target: MAPKAPK5 (human) (UniProt Q8IW41)
MAPKAPK5 (human), sequence (Q8IW41 whole entry, looked up): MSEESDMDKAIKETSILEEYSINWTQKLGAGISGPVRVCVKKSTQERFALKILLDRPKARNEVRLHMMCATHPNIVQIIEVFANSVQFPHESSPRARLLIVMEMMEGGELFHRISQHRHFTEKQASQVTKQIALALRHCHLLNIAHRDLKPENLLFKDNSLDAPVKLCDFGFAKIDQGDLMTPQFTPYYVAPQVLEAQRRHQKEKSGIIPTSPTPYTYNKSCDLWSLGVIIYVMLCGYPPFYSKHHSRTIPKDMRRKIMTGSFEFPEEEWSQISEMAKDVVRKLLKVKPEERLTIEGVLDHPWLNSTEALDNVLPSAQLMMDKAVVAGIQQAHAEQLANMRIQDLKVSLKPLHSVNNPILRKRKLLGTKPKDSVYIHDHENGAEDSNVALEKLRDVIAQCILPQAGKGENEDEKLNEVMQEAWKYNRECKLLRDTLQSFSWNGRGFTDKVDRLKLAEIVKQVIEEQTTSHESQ

[29] = target: PIM2 (human) (UniProt Q9P1W9)
PIM2 (human), sequence (Q9P1W9 whole entry, looked up): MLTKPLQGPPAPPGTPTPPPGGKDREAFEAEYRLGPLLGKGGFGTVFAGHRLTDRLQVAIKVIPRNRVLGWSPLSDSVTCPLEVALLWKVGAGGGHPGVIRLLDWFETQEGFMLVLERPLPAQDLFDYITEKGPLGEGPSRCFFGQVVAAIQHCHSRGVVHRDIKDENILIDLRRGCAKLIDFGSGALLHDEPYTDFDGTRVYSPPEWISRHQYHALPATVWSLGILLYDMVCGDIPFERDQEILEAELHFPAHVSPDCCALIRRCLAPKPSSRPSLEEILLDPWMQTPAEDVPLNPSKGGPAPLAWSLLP

[30] = target: AURKB (human) (UniProt Q96GD4)
[31] = target: HIPK2 (human) (UniProt Q9H2X6)
[32] = target: MST4 (human) (UniProt Q9P289)
[33] = target: SYK (human) (UniProt P43405)

CaMK1 (human), sequence (Q14012 whole entry, looked up): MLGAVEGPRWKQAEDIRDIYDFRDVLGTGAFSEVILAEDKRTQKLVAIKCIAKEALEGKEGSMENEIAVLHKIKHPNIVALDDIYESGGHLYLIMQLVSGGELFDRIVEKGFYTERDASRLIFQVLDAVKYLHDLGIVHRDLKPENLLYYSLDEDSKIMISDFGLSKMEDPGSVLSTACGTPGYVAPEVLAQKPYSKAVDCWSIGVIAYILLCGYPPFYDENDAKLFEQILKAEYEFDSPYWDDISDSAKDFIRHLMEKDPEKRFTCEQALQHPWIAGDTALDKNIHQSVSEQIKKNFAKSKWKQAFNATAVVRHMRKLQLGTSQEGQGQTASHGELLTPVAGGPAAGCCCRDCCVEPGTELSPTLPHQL

Question: For `CC(C)n1nc(-c2cc3cc(O)ccc3[nH]2)c2c(N)ncnc21`, which IC50 [1] is on record?
Answer: > 10000 nM

Question: What about the IC50 [2] of the same compound?
Answer: > 10000 nM

Question: What about the IC50 [3] of the same compound?
Answer: 866 nM

Question: And the IC50 [4]?
Answer: 2130 nM

Question: What about the IC50 [5] of the same compound?
Answer: 82.9 nM

Question: And the per cent of control ([6]; compound 1.0 µM)?
Answer: 80%

Question: And the per cent of control ([6]; compound 10.0 µM)?
Answer: 33%

Question: What about the per cent of control ([7]; compound 1.0 µM) of the same compound?
Answer: 70%

Question: What about the per cent of control ([7]; compound 10.0 µM) of the same compound?
Answer: 28%

Question: And the per cent of control ([8]; compound 1.0 µM)?
Answer: 99%

Question: What about the per cent of control ([8]; compound 10.0 µM) of the same compound?
Answer: 96%

Question: What about the per cent of control ([9]; compound 1.0 µM) of the same compound?
Answer: 97%

Question: And the per cent of control ([9]; compound 10.0 µM)?
Answer: 95%

Question: What about the per cent of control ([10]; compound 1.0 µM) of the same compound?
Answer: 85%

Question: What about the per cent of control ([10]; compound 10.0 µM) of the same compound?
Answer: 84%

Question: What about the per cent of control ([11]; compound 1.0 µM) of the same compound?
Answer: 86%

Question: What about the per cent of control ([11]; compound 10.0 µM) of the same compound?
Answer: 54%

Question: What about the per cent of control ([12]; compound 1.0 µM) of the same compound?
Answer: 94%

Question: And the per cent of control ([12]; compound 10.0 µM)?
Answer: 45%

Question: And the per cent of control ([13]; compound 1.0 µM)?
Answer: 17%

Question: And the per cent of control ([13]; compound 10.0 µM)?
Answer: 7%

Question: And the per cent of control ([14]; compound 1.0 µM)?
Answer: 85%

Question: What about the per cent of control ([14]; compound 10.0 µM) of the same compound?
Answer: 69%

Question: What about the per cent of control ([15]; compound 1.0 µM) of the same compound?
Answer: 91%

Question: What about the per cent of control ([15]; compound 10.0 µM) of the same compound?
Answer: 34%

Question: And the per cent of control ([16]; compound 1.0 µM)?
Answer: 97%

Question: What about the per cent of control ([16]; compound 10.0 µM) of the same compound?
Answer: 73%

Question: What about the per cent of control ([17]; compound 1.0 µM) of the same compound?
Answer: 69%

Question: And the per cent of control ([17]; compound 10.0 µM)?
Answer: 34%

Question: And the per cent of control ([18]; compound 1.0 µM)?
Answer: 63%

Question: What about the per cent of control ([18]; compound 10.0 µM) of the same compound?
Answer: 16%

Question: What about the per cent of control ([19]; compound 1.0 µM) of the same compound?
Answer: 26%

Question: What about the per cent of control ([19]; compound 10.0 µM) of the same compound?
Answer: 13%

Question: And the per cent of control ([20]; compound 1.0 µM)?
Answer: 103%

Question: And the per cent of control ([20]; compound 10.0 µM)?
Answer: 89%

Question: And the per cent of control ([21]; compound 1.0 µM)?
Answer: 20%

Question: And the per cent of control ([21]; compound 10.0 µM)?
Answer: 5%

Question: What about the per cent of control ([22]; compound 1.0 µM) of the same compound?
Answer: 103%

Question: What about the per cent of control ([22]; compound 10.0 µM) of the same compound?
Answer: 60%

Question: What about the per cent of control ([23]; compound 1.0 µM) of the same compound?
Answer: 78%

Question: And the per cent of control ([23]; compound 10.0 µM)?
Answer: 40%

Question: What about the per cent of control ([24]; compound 1.0 µM) of the same compound?
Answer: 31%

Question: What about the per cent of control ([24]; compound 10.0 µM) of the same compound?
Answer: 2%

Question: And the per cent of control ([25]; compound 1.0 µM)?
Answer: 86%

Question: And the per cent of control ([25]; compound 10.0 µM)?
Answer: 42%

Question: And the per cent of control ([26]; compound 1.0 µM)?
Answer: 88%

Question: What about the per cent of control ([26]; compound 10.0 µM) of the same compound?
Answer: 81%

Question: And the per cent of control ([27]; compound 1.0 µM)?
Answer: 47%

Question: And the per cent of control ([27]; compound 10.0 µM)?
Answer: 29%

Question: What about the per cent of control ([28]; compound 1.0 µM) of the same compound?
Answer: 97%

Question: And the per cent of control ([28]; compound 10.0 µM)?
Answer: 92%

Question: And the per cent of control ([29]; compound 1.0 µM)?
Answer: 110%

Question: And the per cent of control ([29]; compound 10.0 µM)?
Answer: 36%

Question: And the per cent of control ([30]; compound 1.0 µM)?
Answer: 78%

Question: And the per cent of control ([30]; compound 10.0 µM)?
Answer: 27%

Question: And the per cent of control ([31]; compound 1.0 µM)?
Answer: 26%

Question: What about the per cent of control ([31]; compound 10.0 µM) of the same compound?
Answer: 7%

Question: What about the per cent of control ([32]; compound 1.0 µM) of the same compound?
Answer: 42%

Question: What about the per cent of control ([32]; compound 10.0 µM) of the same compound?
Answer: 13%

Question: What about the per cent of control ([33]; compound 1.0 µM) of the same compound?
Answer: 89%

Question: And the per cent of control ([33]; compound 10.0 µM)?
Answer: 61%
